Legend:
[1] = tested on: cholesterol-fed rats; test: Cholesterol lowering and change in heart rate in cholesterol-fed rats; format: in vivo, rat; conditions: treated for 7 days
Protocol: Cholesterol lowering effect of T3 and selected compounds disclosed in the present invention on cholesterol lowering and change in heart rate in cholesterol-fed rats (treated for 7 days) was determined according to the general protocol described in PNAS, vol. […] Therefore, these compounds have the potential to be further developed as selective TR-beta agonists for the treatment of human & other animals in need of such treatment.

[2] = target: T1, TR-α (Homo sapiens, UniProt P10827); test: In vitro TR-α activity (in-house protocol); format: cell-based; conditions: for fold induction at 0.001 µM: Conc. 1 nM; for fold induction at 0.001 µM / fold induction at 0.01 µM / fold induction at 0.1 µM / fold induction at 1 µM: read-out: TR-α Fold Induction w.r.t T3(100 nm); for fold induction at 0.01 µM: Conc. 10 nM; for fold induction at 0.1 µM: Conc. 100 nM; for fold induction at 1 µM: Conc. 1000 nM
T1 sequence (P10827 1-410 isoform P10827-2): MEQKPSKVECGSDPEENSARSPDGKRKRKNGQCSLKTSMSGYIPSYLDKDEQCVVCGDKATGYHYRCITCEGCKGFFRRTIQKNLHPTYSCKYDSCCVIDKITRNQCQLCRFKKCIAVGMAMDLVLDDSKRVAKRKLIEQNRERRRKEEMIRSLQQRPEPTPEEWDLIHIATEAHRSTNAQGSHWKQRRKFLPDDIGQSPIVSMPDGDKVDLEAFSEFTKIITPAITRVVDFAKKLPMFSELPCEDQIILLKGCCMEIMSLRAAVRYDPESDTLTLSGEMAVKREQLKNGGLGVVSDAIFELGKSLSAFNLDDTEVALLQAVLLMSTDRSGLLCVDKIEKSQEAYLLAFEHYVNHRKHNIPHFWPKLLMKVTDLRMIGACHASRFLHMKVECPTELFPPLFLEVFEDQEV
Protocol: (§1) In vitro TR-α & TR-β activities were determined as per in-house protocols and the results of representative compounds are provided in tables 1 & 2 below as a proof of the efficacies of the novel class of compounds disclosed above.

[3] = target: T2, TR-β (Homo sapiens, UniProt P10828); test: In vitro TR-β activity (in-house protocol); format: cell-based; conditions: for fold induction at 0.001 µM: Conc. 1 nM; for fold induction at 0.001 µM / fold induction at 0.01 µM / fold induction at 0.1 µM / fold induction at 1 µM: read-out: TR-β Fold Induction w.r.t T3(100 nm); for fold induction at 0.01 µM: Conc. 10 nM; for fold induction at 0.1 µM: Conc. 100 nM; for fold induction at 1 µM: Conc. 1000 nM
T2 sequence (P10828 1-461): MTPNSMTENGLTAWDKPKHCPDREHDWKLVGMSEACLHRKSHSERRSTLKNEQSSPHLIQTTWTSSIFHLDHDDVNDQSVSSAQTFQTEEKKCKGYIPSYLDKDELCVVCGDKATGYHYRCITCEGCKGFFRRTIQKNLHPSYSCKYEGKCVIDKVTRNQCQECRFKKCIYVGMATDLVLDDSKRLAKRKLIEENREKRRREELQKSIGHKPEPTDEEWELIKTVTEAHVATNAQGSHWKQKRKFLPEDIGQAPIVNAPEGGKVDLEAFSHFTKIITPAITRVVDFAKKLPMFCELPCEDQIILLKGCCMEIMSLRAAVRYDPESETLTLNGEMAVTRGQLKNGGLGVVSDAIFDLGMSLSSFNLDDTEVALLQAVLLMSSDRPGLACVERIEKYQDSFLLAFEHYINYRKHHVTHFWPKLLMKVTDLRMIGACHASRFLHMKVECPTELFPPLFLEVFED
Protocol: as §1

With `N[C@@H](Cc1cc(I)c(Oc2ccc(O)c(I)c2)c(I)c1)C(=O)O` [Example T3, reference compound] the “% Change in Heart Rate” value ([1]; oral 13 μg/kg) was 14% and the “% Change in Total Cholesterol” value ([1]; oral 13 μg/kg) was −46%.

In the case of `CC(ON=Cc1cc(Br)c(Oc2ccc(O)c(C(C)C)c2)c(Br)c1)C(=O)O` (stereo not drawn) [Example 10, 2-(((3,5-dibromo-4-(4-hydroxy-3-isopropylphenoxy)benzylidene)amino)oxy)propanoic acid], the EC50 [2] is reported as 25 nM, the EC50 [3] is reported as 3.25 nM and the “% Change in Heart Rate” value ([1]; oral 0.2 mg/kg) is reported as 9.5%. The “% Change in Total Cholesterol” value ([1]; oral 0.2 mg/kg) was −45%.

In the case of `CC(C)c1cc(Oc2c(Br)cc(C=NOCC(=O)O)cc2Br)ccc1O` [Example 3, 2-(((3,5-dibromo-4-(4-hydroxy-3-isopropylphenoxy)benzylidene)amino)oxy)acetic acid], the fold induction at 0.001 µM [2] is reported as 18.3, the fold induction at 0.01 µM [2] is reported as 38.5 and the fold induction at 0.1 µM [2] is reported as 93.8. For the same compound, the fold induction at 1 µM [2] was 133, the fold induction at 0.001 µM [3] was 17.7 and the fold induction at 0.01 µM [3] was 49.5. The fold induction at 0.1 µM [3] was 92.1, the fold induction at 1 µM [3] was 138 and the “% Change in Heart Rate” value ([1]; oral 0.5 mg/kg) was 4.2%. The “% Change in Total Cholesterol” value ([1]; oral 0.5 mg/kg) was −68%.

`CC(C)c1cc(Oc2c(Cl)cc(C=NOCC(=O)O)cc2Cl)ccc1O` [Example 1, 2-(((3,5-dichloro-4-(4-hydroxy-3-isopropylphenoxy)benzylidene)amino)oxy)acetic acid] showed a fold induction at 0.001 µM [2] of 11.8, a fold induction at 0.01 µM [2] of 25.7 and a fold induction at 0.1 µM [2] of 73.5. For the same compound, the fold induction at 1 µM [2] was 99, the fold induction at 0.001 µM [3] was 7.72 and the fold induction at 0.01 µM [3] was 20.6. It also gave a fold induction at 0.1 µM [3] of 52.6 and a fold induction at 1 µM [3] of 53.4.

Work on `CC(ON=Cc1cc(Br)c(Oc2ccc(O)c(C(O)c3cccc(Cl)c3)c2)c(Br)c1)C(=O)O` (stereo not drawn) [Example 34, 2-(((3,5-dibromo-4-(3-((3-chlorophenyl)(hydroxy)methyl)-4-hydroxyphenoxy)benzylidene)amino)oxy)propanoic acid] yielded a fold induction at 0.001 µM [2] of 14.1, a fold induction at 0.01 µM [2] of 11.8 and a fold induction at 0.1 µM [2] of 17.9. The fold induction at 1 µM [2] was 39.8, the fold induction at 0.001 µM [3] was 10.9 and the fold induction at 0.01 µM [3] was 9.74. The fold induction at 0.1 µM [3] was 21.4 and the fold induction at 1 µM [3] was 47.5.

`CC(ON=Cc1cc(Br)c(Oc2ccc(O)c(-c3ccccc3)c2)c(Br)c1)C(=O)O` (stereo not drawn) [Example 11, 2-(((3,5-dibromo-4-((6-hydroxy-[1,1′-biphenyl]-3-yl)oxy)benzylidene)amino)oxy)propanoic acid] showed a fold induction at 0.001 µM [2] of 16.2, a fold induction at 0.01 µM [2] of 32.8 and a fold induction at 0.1 µM [2] of 70.2. It also gave a fold induction at 1 µM [2] of 49.4, a fold induction at 0.001 µM [3] of 16.1 and a fold induction at 0.01 µM [3] of 39.3. The fold induction at 0.1 µM [3] was 73.8 and the fold induction at 1 µM [3] was 65.3.

With `CC(ON=Cc1cc(Br)c(Oc2ccc(O)c(Cc3ccccc3)c2)c(Br)c1)C(=O)O` (stereo not drawn) [Example 16, 2-(((4-(3-benzyl-4-hydroxyphenoxy)-3,5-dibromobenzylidene)amino)oxy)propanoic acid] the fold induction at 0.001 µM [2] was 19.1, the fold induction at 0.01 µM [2] was 29.4 and the fold induction at 0.1 µM [2] was 119. For the same compound, the fold induction at 1 µM [2] was 161, the fold induction at 0.001 µM [3] was 12 and the fold induction at 0.01 µM [3] was 31.7. The fold induction at 0.1 µM [3] was 54.3 and the fold induction at 1 µM [3] was 70.5.

`CC(C)NS(=O)(=O)c1cc(Oc2c(Br)cc(C=NOC(C)C(=O)O)cc2Br)ccc1O` (stereo not drawn) [Example 37, 2-(((3,5-dibromo-4-(4-hydroxy-3-(N-isopropylsulfamoyl)phenoxy)benzylidene)amino)oxy)propanoic acid] was tested, and the fold induction at 0.001 µM [2] was 11.2, the fold induction at 0.01 µM [2] was 11.5 and the fold induction at 0.1 µM [2] was 17.6. For the same compound, the fold induction at 1 µM [2] was 45.6, the fold induction at 0.001 µM [3] was 8.41 and the fold induction at 0.01 µM [3] was 9.07. The fold induction at 0.1 µM [3] was 17.7 and the fold induction at 1 µM [3] was 60.5.

`CCC(C)c1cc(Oc2c(Br)cc(C=NOCC(=O)O)cc2Br)ccc1O` (stereo not drawn) [Example 6, 2-(((3,5-dibromo-4-(3-(sec-butyl)-4-hydroxyphenoxy)benzylidene)amino)oxy)acetic acid] was tested, and the fold induction at 0.001 µM [2] was 11.6, the fold induction at 0.01 µM [2] was 39.8 and the fold induction at 0.1 µM [2] was 60.6. The fold induction at 1 µM [2] was 64.9, the fold induction at 0.001 µM [3] was 15.9 and the fold induction at 0.01 µM [3] was 37.1. It also gave a fold induction at 0.1 µM [3] of 84 and a fold induction at 1 µM [3] of 74.6.

Work on `CCC(ON=Cc1cc(Br)c(Oc2ccc(O)c(-c3ccccc3)c2)c(Br)c1)C(=O)O` (stereo not drawn) [Example 21, 2-(((3,5-dibromo-4-((6-hydroxy-[1,1′-biphenyl]-3-yl)oxy)benzylidene)amino)oxy)butanoic acid] yielded a fold induction at 0.001 µM [2] of 12.8, a fold induction at 0.01 µM [2] of 16.6 and a fold induction at 0.1 µM [2] of 50.4. The fold induction at 1 µM [2] was 105, the fold induction at 0.001 µM [3] was 12.9 and the fold induction at 0.01 µM [3] was 18.2. It also gave a fold induction at 0.1 µM [3] of 51.6 and a fold induction at 1 µM [3] of 63.8.

In the case of `CCC(C)c1cc(Oc2c(Br)cc(C=NOC(C)C(=O)O)cc2Br)ccc1O` (stereo not drawn) [Example 14, 2-(((3,5-dibromo-4-(3-(sec-butyl)-4-hydroxyphenoxy)benzylidene)amino)oxy)propanoic acid], the EC50 [2] is reported as 5.12 nM, the EC50 [3] is reported as 0.99 nM and the “% Change in Heart Rate” value ([1]; oral 0.1 mg/kg) is reported as −2%. For the same compound, the “% Change in Total Cholesterol” value ([1]; oral 0.1 mg/kg) was −44%.

For `CC(ON=Cc1cc(Br)c(Oc2ccc(O)c(S(=O)(=O)N[C@@H]3C[C@H]4CC[C@@H]3C4)c2)c(Br)c1)C(=O)O` (stereo partly drawn) [Example 40, 2-(((4-(3-(N-((1R,2R,4S)-bicyclo[2.2.1]heptan-2-yl)sulfamoyl)-4-hydroxyphenoxy)-3,5-dibromobenzylidene)amino)oxy)propanoic acid], the fold induction at 0.001 µM [2] was 10.7, the fold induction at 0.01 µM [2] was 9.07 and the fold induction at 0.1 µM [2] was 10.1. It also gave a fold induction at 1 µM [2] of 16.7, a fold induction at 0.001 µM [3] of 10.1 and a fold induction at 0.01 µM [3] of 9.01. For the same compound, the fold induction at 0.1 µM [3] was 10.9 and the fold induction at 1 µM [3] was 36.5.

— US20110301200A1, “THYROID RECEPTOR LIGANDS” (CADILA HEALTHCARE LIMITED, priority 2008, published 2011)
